Experimental findings from PMC12203862, “BroadAMP-GPT: AI-Driven generation of broad-spectrum antimicrobial peptides for combating multidrug-resistant ESKAPE pathogens” (Gut Microbes, 2025) are described below.

Converted amounts (≈) assume the structure as drawn.

Test [1] deals with S. suis P1/7. Briefly: microbe, parasite or virus in culture. The conditions noted are these: Streptococcus suis, P1/7. How it is done:
(§1) Bacterial strains and growth conditions: All Gram-negative and Gram-positive bacterial strains (Supplementary Table S8) were cultured in Luria-Bertani (LB) or trypticase soy broth (TSB) agar plates, respectively, and incubated overnight at 37 °C unless specifically indicated. A single colony of the tested bacterial strains was inoculated into medium broth with shaking at 220 rpm for further experiments.
Minimal inhibitory concentrations: Antimicrobial susceptibility testing was performed by broth microdilution method for AMPs against Gram-positive and Gram-negative pathogens above mentioned, following the methods of document CLSI M100-ED34.[43] The MICs were defined as the lowest concentrations that inhibit visible growth of the tested bacteria.

In test [2] the test system is S. suis SH0918. Briefly: microbe, parasite or virus in culture. The conditions noted are these: Streptococcus suis; Table 1; S. suis SH0918; ermB, tetO, optrA; broth microdilution; read-out: MIC. The format is cell-based. How it is done:
as §1
(§2) Minimal inhibitory concentrations: Antimicrobial susceptibility testing was performed by broth microdilution method for AMPs against Gram-positive and Gram-negative pathogens above mentioned, following the methods of document CLSI M100-ED34.[43] The MICs were defined as the lowest concentrations that inhibit visible growth of the tested bacteria. E. coli ATCC 25,922 and S. aureus ATCC 29,213 were served as quality controls.

The subject of test [3] is E. faecium MC38. Briefly: microbe, parasite or virus in culture. The conditions noted are these: Enterococcus faecium; Table 1; E. faecium MC38; ermB, optrA; broth microdilution; read-out: MIC. The format is cell-based. The procedure: as §1, §2
A general note: In broth dilution the organism is exposed to a series of concentrations in liquid medium.

Test [4] deals with S. agalactiae DL03. The experiment in a line: microbe, parasite or virus in culture. The test is classed as cell-based. The conditions noted are these: Streptococcus agalactiae; Table 1; S. agalactiae DL03; ermB; broth microdilution; read-out: MIC. The procedure:
as §1, §2

The subject of test [5] is S. aureus YZSA-21. The experiment in a line: microbe, parasite or virus in culture. The format is cell-based. The conditions noted are these: Staphylococcus aureus, YZSA21; Table 1; S. aureus YZSA-21; ermC; broth microdilution; read-out: MIC. How it is done:
as §1, §2

In test [6] the test system is E. faecalis JH2-2. The experiment in a line: microbe, parasite or virus in culture. The conditions noted are these: Enterococcus faecalis, JH22; Table 1; E. faecalis JH2-2; broth microdilution; read-out: MIC. The format is cell-based. The procedure:
as §1, §2

The test system of test [7] is E. coli ATCC 25922. The experiment in a line: microbe, parasite or virus in culture. The test is classed as cell-based. The conditions noted are these: Escherichia coli, ATCC25922; Table 1; E. coli ATCC 25922; broth microdilution; read-out: MIC. The procedure:
as §1, §2

For test [8], the system named is S. aureus M147-2. Briefly: microbe, parasite or virus in culture. The test is classed as cell-based. The conditions noted are these: Staphylococcus aureus, M1472; Table 1; S. aureus M147-2; ermB, tetL, cfr; broth microdilution; read-out: MIC. How it is done: as §1, §2
For test [9], the system named is S. aureus YZSA-24. The experiment in a line: microbe, parasite or virus in culture. The test is classed as cell-based. The conditions noted are these: Staphylococcus aureus, YZSA24; Table 1; S. aureus YZSA-24; ermC, mecA; broth microdilution; read-out: MIC. How it is done:
as §1, §2

The test system of test [10] is A. baumannii AB11. The experiment in a line: microbe, parasite or virus in culture. The format is cell-based. The conditions noted are these: Acinetobacter baumannii; Table 1; A. baumannii AB11; broth microdilution; read-out: MIC. The procedure: as §1, §2
Test [11] relates to E. faecium HFY01. Briefly: microbe, parasite or virus in culture. The format is cell-based. The conditions noted are these: Enterococcus faecium; Table 1; E. faecium HFY01; broth microdilution; read-out: MIC. The procedure: as §1, §2
Test [12] deals with E. faecalis ES01. The experiment in a line: microbe, parasite or virus in culture. The format is cell-based. The conditions noted are these: Enterococcus faecalis; Table 1; E. faecalis ES01; ermB, vanB; broth microdilution; read-out: MIC. The procedure: as §1, §2
The subject of test [13] is S. aureus M92-1. The experiment in a line: microbe, parasite or virus in culture. The test is classed as cell-based. The conditions noted are these: Staphylococcus aureus, M921; Table 1; S. aureus M92-1; ermB, tetL, optrA; broth microdilution; read-out: MIC. How it is done: as §1, §2
The subject of test [14] is P. aeruginosa PAO1. Briefly: microbe, parasite or virus in culture. The test is classed as cell-based. The conditions noted are these: Pseudomonas aeruginosa; Table 1; P. aeruginosa PAO1; broth microdilution; read-out: MIC. How it is done: as §1, §2
The test system of test [15] is S. pyogenes DL02. Briefly: microbe, parasite or virus in culture. The test is classed as cell-based. The conditions noted are these: Streptococcus pyogenes; Table 1; S. pyogenes DL02; ermB; broth microdilution; read-out: MIC. How it is done: as §1, §2
Test [16] has as its system P. aeruginosa PA14. The experiment in a line: microbe, parasite or virus in culture. The format is cell-based. The conditions noted are these: Pseudomonas aeruginosa; Table 1; P. aeruginosa PA14; broth microdilution; read-out: MIC. How it is done: as §1, §2
In test [17] the test system is E. faecium QF31. The experiment in a line: microbe, parasite or virus in culture. The format is cell-based. The conditions noted are these: Enterococcus faecium; Table 1; E. faecium QF31; ermB, cfr; broth microdilution; read-out: MIC. The procedure:
as §1, §2

In test [18] the test system is K. pneumoniae 9-1. Briefly: microbe, parasite or virus in culture. The format is cell-based. The conditions noted are these: Klebsiella pneumoniae, 91; Table 1; K. pneumoniae 9-1; broth microdilution; read-out: MIC. How it is done:
as §1, §2

In test [19] the test system is E. faecalis SF23-1. The experiment in a line: microbe, parasite or virus in culture. The format is cell-based. The conditions noted are these: Enterococcus faecalis, SF231; Table 1; E. faecalis SF23-1; ermB, tetL, cfr; broth microdilution; read-out: MIC. How it is done: as §1, §2
The subject of test [20] is E. faecalis J2. Briefly: microbe, parasite or virus in culture. The format is cell-based. The conditions noted are these: Enterococcus faecalis; Table 1; E. faecalis J2; ermB, optrA; broth microdilution; read-out: MIC. The procedure: as §1, §2
For test [21], the system named is S. aureus YZSA-15. The experiment in a line: microbe, parasite or virus in culture. The conditions noted are these: Staphylococcus aureus, YZSA15; Table 1; S. aureus YZSA-15; ermC, vanB; broth microdilution; read-out: MIC. The format is cell-based. The procedure:
as §1, §2

Test [22] relates to A. baumannii 7979. Briefly: microbe, parasite or virus in culture. The format is cell-based. The conditions noted are these: Acinetobacter baumannii; Table 1; A. baumannii 7979; broth microdilution; read-out: MIC. How it is done: as §1, §2
The test system of test [23] is S. aureus ATCC 29213. The experiment in a line: microbe, parasite or virus in culture. The format is cell-based. The conditions noted are these: Staphylococcus aureus, ATCC29213; Table 1; S. aureus ATCC 29213; broth microdilution, CLSI M100-ED34; read-out: MIC.
Test [24] concerns S. enteritis S1. The experiment in a line: organism not typed. The conditions noted are these: Table 1; S. enteritis S1; broth microdilution; read-out: MIC. The test is classed as cell-based. The procedure: as §1, §2

As to `CNC(C)C1CCC(N)C(OC2C(N)CC(N)C(OC3OCC(C)(O)C(NC)C3O)C2O)O1` (stereo not drawn) [GEN, gentamicin], the MIC in [1] is 4 µg/mL (≈ 8.38 µM); in [2], 16 µg/mL (≈ 33.5 µM); in [3], above 64 µg/mL; in test [4] it was 16 µg/mL (≈ 33.5 µM); in [5] it was 0.5 µg/mL (≈ 1.05 µM); in [6] it was 4 µg/mL (≈ 8.38 µM). The MIC in test [7] was 4 µg/mL (≈ 8.38 µM); in test [8] it was above 64 µg/mL; in test [9] it was 1 µg/mL (≈ 2.09 µM); in test [10], below 0.06 µg/mL; in [11], below 0.06 µg/mL; in test [12], above 64 µg/mL. The MIC is above 64 µg/mL in test [13]; 0.125 µg/mL (≈ 0.262 µM) in [14]; 1 µg/mL (≈ 2.09 µM) in [15]; below 0.06 µg/mL in test [16]; above 64 µg/mL in test [17]; above 64 µg/mL in test [18]. Besides, the MIC in test [19] was 8 µg/mL (≈ 16.8 µM); in [20], above 64 µg/mL; in test [21], 0.5 µg/mL (≈ 1.05 µM); in test [22], above 64 µg/mL; in test [23], 1 µg/mL (≈ 2.09 µM); in [24] it was 0.25 µg/mL (≈ 0.523 µM).

With `CO[C@@]1(NC(=O)Cc2cccs2)C(=O)N2C(C(=O)O)=C(COC(N)=O)CS[C@@H]21` [FOX, Cefoxitin], the MIC in test [1] is 1 µg/mL (≈ 2.34 µM); in test [2] it was 8 µg/mL (≈ 18.7 µM); in test [3], above 64 µg/mL; in [4], 4 µg/mL (≈ 9.36 µM); in test [5], 4 µg/mL (≈ 9.36 µM); in [6] it was above 64 µg/mL. Further, the MIC in test [7] was 0.25 µg/mL (≈ 0.585 µM); in test [8], 4 µg/mL (≈ 9.36 µM); in test [9], 32 µg/mL (≈ 74.9 µM); in test [10] it was 16 µg/mL (≈ 37.4 µM); in [11] it was 8 µg/mL (≈ 18.7 µM); in test [12], above 64 µg/mL. For the same compound, the MIC was 4 µg/mL (≈ 9.36 µM) in [13]; above 64 µg/mL in test [14]; 1 µg/mL (≈ 2.34 µM) in test [15]; above 64 µg/mL in [16]; above 64 µg/mL in [17]; above 64 µg/mL in test [18]. Also, the MIC in test [19] was above 64 µg/mL; in [20], above 64 µg/mL; in [21] it was 2 µg/mL (≈ 4.68 µM); in test [22], above 64 µg/mL; in [23] it was 1 µg/mL (≈ 2.34 µM); in test [24], 32 µg/mL (≈ 74.9 µM).

Take `CC1(C)S[C@@H]2[C@H](NC(=O)[C@H](N)c3ccccc3)C(=O)N2[C@H]1C(=O)O` [AMP, Ampicillin]: the MIC in test [1] stood at 0.5 µg/mL (≈ 1.43 µM); in test [2], 0.25 µg/mL (≈ 0.715 µM); in test [3] it was 32 µg/mL (≈ 91.6 µM); in test [4], 0.25 µg/mL (≈ 0.715 µM); in [5], 1 µg/mL (≈ 2.86 µM); in test [6], 16 µg/mL (≈ 45.8 µM). The MIC in [7] was 2 µg/mL (≈ 5.72 µM); in test [8], 16 µg/mL (≈ 45.8 µM); in test [9] it was above 64 µg/mL; in [10], below 0.06 µg/mL; in test [11], 1 µg/mL (≈ 2.86 µM); in [12] it was 16 µg/mL (≈ 45.8 µM). Also, the MIC in test [13] was 16 µg/mL (≈ 45.8 µM); in [14], above 64 µg/mL; in [15], 0.5 µg/mL (≈ 1.43 µM); in [16], above 64 µg/mL; in [17], 32 µg/mL (≈ 91.6 µM); in test [18] it was above 64 µg/mL. In addition, the MIC in [19] was 16 µg/mL (≈ 45.8 µM); in test [20], 16 µg/mL (≈ 45.8 µM); in [21], 2 µg/mL (≈ 5.72 µM); in test [22] it was above 64 µg/mL; in test [23] it was 1 µg/mL (≈ 2.86 µM); in test [24], 32 µg/mL (≈ 91.6 µM).
